Results on two compounds are retold here after patent US20190059429A1, “SALT COMPOSITION INCLUDING SERINE” (NESTEC S.A., priority 2016, published 2019).

Data set [1] is described as follows: Dissolution kinetics in water by online refractometry. The format is physicochemical. The settings on record: 60 mL water, stirred 500 rpm, room temperature, particle size 100-200 μm, refractive index. Here is the method:
FIG. 1 Dissolution kinetics. The change in refractive index (n) was measured by online-refractometry in water over the time period 0 to 50 seconds. 0.56 g of pure NaCl (triangle); 2.58 g of (L-serine)2.sodium chloride co-crystals (diamond); a physical mixture of 2.02 g L-serine and 0.56 g NaCl (cross); and a 2.02 g of pure L-serine (star) were each added to 60 mL of water stirred (500 rpm) at room temperature. The particle size of the respective solids was standardized in the range 100-200 μm.
The rate of dissolution of a solid in a liquid may be measured by refractometry. A refractometer measures the extent to which light is refracted when it moves from air into a sample, thereby allowing the refractive index (n) of the sample to be measured. […] Accordingly, by monitoring the change in refractive index over time, the kinetic rate of dissolution of a solid can be determined. So that independent measurements of dissolution rate can be compared, the refractive index values may be normalised by expression as a percentage of the maximal value recorded in a particular experiment.
The dissolution behaviour of (L-serine)2.sodium co-crystals obtained by direct crystallisation from a saturated solution (Example 2) were tested by refractometry. In this experiment, test samples were added to 60 mL of water, and the extent of dissolution was measured while stirring at 500 rpm. […]

The next data set has as its system trained panellists. The experiment in a line: Sensory evaluation of tablets by 11 trained panellists. It counts as in vivo. The settings on record: tablets 123.7 mg. Here is the method: Bars coloured black denote a significant difference in a particular taste/sensory characteristic. Unshaded bars denote that there is no significant difference in the characteristic. A positive number represents an increased sensory response of the co-crystal compared to the physical mixture.
Tablets for sensory evaluation were prepared using a Romaco Kilian Styl'One single-stroke tablet press. […] The tablets were prepared with three compressions of 300 ms and an interval of 200 ms.
Each of the panellists received a tray with two tablets presented on plastic plates coded with random 3-digit numbers. The tablets had to be crunched with the front teeth and kept in mouth to dissolve slowly (method 1). Alternatively, tablets could be crunched with the front teeth and chewed constantly in the mouth until complete dissolution occurred (method 2).
Afterwards the panellists were asked to rate the taste of the tablets in respect of the following 12 categories: upfront saltiness (1), overall saltiness (2), sweetness (3), sourness (4), umami (5), friable (6), melting (7), overall persistence (8), saltiness persistence (9), sweetness persistence (10), sourness persistence (11), and tingling (12).

For `[Cl-].[Na+]` [NaCl, Sodium chloride, reference compound], the “time to reach 90% dissolution” value in data set [1] is listed as “around 25 seconds”.
With `N[C@@H](CO)C(=O)O.N[C@@H](CO)C(=O)O.[Cl-].[Na+]` [(L-serine)2.sodium chloride co-crystals, (L-serine)2.sodium chloride], in data set [1], the “time to reach 90% dissolution” value is on record as “around 25 seconds”. Moreover, the “salty taste perceived, co-crystal tablets vs L-serine/NaCl physical mix tablets” value with trained panellists (during and after consumption) was “significantly more salty”. In the data set on trained panellists (FIG. 2), the “overall saltiness vs physical mix” value is listed as “superior”, the “saltiness persistence vs physical mix” value is recorded as “superior” and the “upfront saltiness vs physical mix” value was “superior”.
